Laboratory results taken from patent US9695155B2, “Herbicidal substituted pyrimidinyloxy benzene compounds” (E. I. DU PONT DE NEMOURS AND COMPANY, priority 2013, dated 2017).

Experiments:
blackgrass [1] = test: Test D preemergence; assay type: in vivo, Alopecurus myosuroides; conditions: Alopecurus myosuroides, pre-emergence, scale 0-100, read-out: Plant response rating, Blackgrass
Method in brief: (§1)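 Visual rating vs untreated controls, 0 = no effect, 100 = complete control, taken 7–21 d after treatment. Pre: silt loam soil. Post: potting medium, plants 2–18 cm, 1–4 leaf. Formulation: non-phytotoxic solvent mix + surfactant.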

chickweed = test: Test D postemergence; assay type: in vivo, Stellaria media; conditions: Stellaria media, post-emergence, scale 0 to 100 (0 no effect, 100 complete control), read-out: Plant response rating, Chickweed
Method in brief: as §1

spring barley = test: Test D preemergence; assay type: in vivo, Hordeum vulgare; conditions: Hordeum vulgare, pre-emergence, scale 0-100, read-out: Plant response rating, Barley, Spring
Method in brief: as §1

winter barley = test: Test D preemergence; assay type: in vivo, Hordeum vulgare; conditions: Hordeum vulgare, pre-emergence, scale 0-100, read-out: Plant response rating, Barley, Winter
Method in brief: as §1

canarygrass = test: Test D preemergence; assay type: in vivo, Phalaris minor; conditions: Phalaris minor, pre-emergence, scale 0-100, read-out: Plant response rating, Canarygrass
Method in brief: as §1

pigweed = test: Test D postemergence; assay type: in vivo, Amaranthus retroflexus; conditions: Amaranthus retroflexus, post-emergence, scale 0 to 100 (0 no effect, 100 complete control), read-out: Plant response rating, Pigweed
Method in brief: as §1

wild buckwheat = test: Test D preemergence; assay type: in vivo, Polygonum convolvulus; conditions: Fallopia convolvulus, pre-emergence, scale 0-100, read-out: Plant response rating, Buckwheat, Wild
Method in brief: as §1

Italian ryegrass = test: Test E postemergence; assay type: in vivo, Lolium multiflorum; conditions: Lolium multiflorum, post-emergence, read-out: Plant response rating, Ryegrass, Italian
Method in brief: (§2)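 Compound in a non-phytotoxic solvent mixture with surfactant was applied preemergence to seeds in silt loam soil, or postemergence to plants 2 to 18 cm tall grown in peat-based potting medium. Plants were kept in a greenhouse for 14 to 21 days, then rated visually against untreated controls on a 0 (no effect) to 100 (complete control) scale.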

blackgrass [2] = test: Test D postemergence; assay type: in vivo, Alopecurus myosuroides; conditions: Alopecurus myosuroides, post-emergence, Postemergence, scale 0 to 100 (0 no effect, 100 complete control), read-out: Plant response rating, Blackgrass
Method in brief: as §1

windgrass = test: Test D preemergence; assay type: in vivo, Apera spica-venti; conditions: Apera spica-venti, pre-emergence
Method in brief: as §1

speedwell = test: Test D preemergence; assay type: in vivo, Veronica persica; conditions: Veronica persica, pre-emergence
Method in brief: as §1

bluegrass = test: Test D preemergence; assay type: in vivo, Poa annua; conditions: Poa annua, pre-emergence, scale 0-100, read-out: Plant response rating, Bluegrass
Method in brief: as §1

hairy beggarticks = test: Test E postemergence; assay type: in vivo, Bidens pilosa; conditions: Bidens pilosa, post-emergence, read-out: Plant response rating, Beggarticks
Method in brief: as §2

[3] = Postemergence, 31 g ai/ha, scale 0 to 100
[4] = Postemergence, 62 g ai/ha, scale 0 to 100
[5] = Postemergence, 125 g ai/ha, scale 0 to 100
[6] = Postemergence, 250 g ai/ha, scale 0 to 100
[7] = postemergence, 16 g ai/ha, scale 0 to 100, 0 no effect, 100 complete control

Question: How did the pest or weed control at 31 g/ha (blackgrass [1]; 31 g ai/ha) turn out when `N#Cc1cccc(Oc2ncc(Cl)cn2)c1-n1cc(C(F)(F)F)cn1` [Compound 58, 3-[(5-chloro-2-pyrimidinyl)oxy]-2-[4-(trifluoromethyl)-1H-pyrazol-1-yl]benzonitrile] was run?
Answer: 20%

Question: What about the pest or weed control at 62 g/ha (blackgrass [1]; 62 g ai/ha) of the same molecule?
Answer: 55%

Question: What about the pest or weed control at 125 g/ha (blackgrass [1]; 125 g ai/ha) of the same molecule?
Answer: 100%

Question: And the pest or weed control at 250 g/ha (blackgrass [1]; 250 g ai/ha)?
Answer: 100%

Question: And the pest or weed control at 31 g/ha (chickweed; 31 g ai/ha)?
Answer: 70%

Question: What about the pest or weed control at 62 g/ha (chickweed; 62 g ai/ha) of the same molecule?
Answer: 90%

Question: What about the pest or weed control at 125 g/ha (chickweed; 125 g ai/ha) of the same molecule?
Answer: 100%

Question: What about the pest or weed control at 250 g/ha (chickweed; 250 g ai/ha) of the same molecule?
Answer: 100%

Question: And the plant injury at 31 g/ha (spring barley; 31 g ai/ha)?
Answer: 10%

Question: What about the plant injury at 62 g/ha (spring barley; 62 g ai/ha) of the same molecule?
Answer: 50%

Question: What about the plant injury at 125 g/ha (spring barley; 125 g ai/ha) of the same molecule?
Answer: 85%

Question: What about the plant injury at 250 g/ha (spring barley; 250 g ai/ha) of the same molecule?
Answer: 100%

Question: And the plant injury at 31 g/ha (winter barley; 31 g ai/ha)?
Answer: 10%

Question: And the plant injury at 62 g/ha (winter barley; 62 g ai/ha)?
Answer: 35%

Question: And the plant injury at 125 g/ha (winter barley; 125 g ai/ha)?
Answer: 80%

Question: And the plant injury at 250 g/ha (winter barley; 250 g ai/ha)?
Answer: 100%

Question: And the pest or weed control at 31 g/ha (canarygrass; 31 g ai/ha)?
Answer: 20%

Question: What about the pest or weed control at 62 g/ha (canarygrass; 62 g ai/ha) of the same molecule?
Answer: 55%

Question: What about the pest or weed control at 125 g/ha (canarygrass; 125 g ai/ha) of the same molecule?
Answer: 100%

Question: And the pest or weed control at 250 g/ha (canarygrass; 250 g ai/ha)?
Answer: 100%

Question: And the pest or weed control at 31 g/ha (pigweed; 31 g ai/ha)?
Answer: 90%

Question: What about the pest or weed control at 62 g/ha (pigweed; 62 g ai/ha) of the same molecule?
Answer: 100%

Question: And the pest or weed control at 125 g/ha (pigweed; 125 g ai/ha)?
Answer: 100%

Question: And the pest or weed control at 250 g/ha (pigweed; 250 g ai/ha)?
Answer: 100%

Question: What about the pest or weed control at 31 g/ha (wild buckwheat; 31 g ai/ha) of the same molecule?
Answer: 100%

Question: What about the pest or weed control at 62 g/ha (wild buckwheat; 62 g ai/ha) of the same molecule?
Answer: 100%

Question: What about the pest or weed control at 125 g/ha (wild buckwheat; 125 g ai/ha) of the same molecule?
Answer: 100%

Question: And the pest or weed control at 250 g/ha (wild buckwheat; 250 g ai/ha)?
Answer: 100%

Question: What about the pest or weed control at 31 g/ha (Italian ryegrass; [3]) of the same molecule?
Answer: 10%

Question: What about the pest or weed control at 62 g/ha (Italian ryegrass; [4]) of the same molecule?
Answer: 20%

Question: What about the pest or weed control at 125 g/ha (Italian ryegrass; [5]) of the same molecule?
Answer: 35%

Question: And the pest or weed control at 250 g/ha (Italian ryegrass; [6])?
Answer: 60%

Question: What about the pest or weed control at 16 g/ha (Italian ryegrass; [7]) of the same molecule?
Answer: 10%

Question: And the pest or weed control at 62 g/ha (blackgrass [2]; 62 g ai/ha)?
Answer: 45%

Question: What about the pest or weed control at 31 g/ha (blackgrass [2]; 31 g ai/ha) of the same molecule?
Answer: 20%

Question: What about the pest or weed control at 125 g/ha (blackgrass [2]; 125 g ai/ha) of the same molecule?
Answer: 70%

Question: And the pest or weed control at 250 g/ha (blackgrass [2]; 250 g ai/ha)?
Answer: 90%

Question: What about the pest or weed control at 31 g/ha (windgrass; 31 g ai/ha, scale 0 (no effect) to 100 (complete control), read-out: Plant response rating, Windgrass) of the same molecule?
Answer: 100%

Question: What about the pest or weed control at 62 g/ha (windgrass; 62 g ai/ha, scale 0-100, read-out: Plant response rating, Windgrass) of the same molecule?
Answer: 100%

Question: What about the pest or weed control at 125 g/ha (windgrass; 125 g ai/ha, scale 0-100, read-out: Plant response rating, Windgrass) of the same molecule?
Answer: 100%

Question: And the pest or weed control at 250 g/ha (windgrass; 250 g ai/ha, scale 0-100, read-out: Plant response rating, Windgrass)?
Answer: 100%

Question: What about the pest or weed control at 31 g/ha (speedwell; 31 g ai/ha, scale 0 (no effect) to 100 (complete control), read-out: Plant response rating, Speedwell) of the same molecule?
Answer: 100%

Question: And the pest or weed control at 62 g/ha (speedwell; 62 g ai/ha, scale 0-100, read-out: Plant response rating, Speedwell)?
Answer: 100%

Question: What about the pest or weed control at 125 g/ha (speedwell; 125 g ai/ha, scale 0-100, read-out: Plant response rating, Speedwell) of the same molecule?
Answer: 100%

Question: What about the pest or weed control at 250 g/ha (speedwell; 250 g ai/ha, scale 0-100, read-out: Plant response rating, Speedwell) of the same molecule?
Answer: 100%

Question: And the pest or weed control at 31 g/ha (bluegrass; 31 g ai/ha)?
Answer: 10%

Question: And the pest or weed control at 62 g/ha (bluegrass; 62 g ai/ha)?
Answer: 50%

Question: What about the pest or weed control at 125 g/ha (bluegrass; 125 g ai/ha) of the same molecule?
Answer: 100%

Question: And the pest or weed control at 250 g/ha (bluegrass; 250 g ai/ha)?
Answer: 100%

Question: And the pest or weed control at 31 g/ha (hairy beggarticks; [3])?
Answer: 65%

Question: And the pest or weed control at 62 g/ha (hairy beggarticks; [4])?
Answer: 80%

Question: And the pest or weed control at 125 g/ha (hairy beggarticks; [5])?
Answer: 90%

Question: And the pest or weed control at 250 g/ha (hairy beggarticks; [6])?
Answer: 95%

Question: What about the pest or weed control at 16 g/ha (hairy beggarticks; [7]) of the same molecule?
Answer: 60%
